“And” between values parts separate entries of the source, which are not always exact repeats. Identical values can stand only once.
Assays:
MDA MB-231 cells = assay: Cell viability of MDA MB-231 breast cancer cells in culture (MTT or WST-1, 72 hrs); format: cell-based, human; conditions: oseltamivir phosphate alone; MDA MB-231 (chemo-resistant); MTT or WST-1, 72 hrs
Description: (§1) MDA MB-231cells (ATCC® Number: HTB-26™) are human mammary gland breast adenocarcinoma derived from metastatic pleural effusion with epithelial morphology. MCF-7 (ATCC® Number: HTB-22™) are human mammary gland breast adenocarcinoma derived from metastatic pleural effusion with epithelial morphology.
(§2) All cells were grown at 37° C. in 5% CO2 in culture media containing Dulbecco's Modified Eagle Medium (DMEM) (Gibco, Rockville, Md.) supplemented with 10% fetal calf serum (FCS) (HyClone, Logan, Utah, USA).
(§3) MTT is a colorimetric assay for measuring the activity of enzymes that reduce MTT or closely related dyes (XTT, MTS, WSTs) to formazan dye, giving a purple color. A main application allows the assessment of the viability (cell counting) and the proliferation of cells (cell culture assays). It can also be used to determine cytotoxicity of potential medicinal agents and toxic materials, since those agents would stimulate or inhibit cell viability and growth. MTT (3-(4,5-Dimethylthiazol-2-yl)-2,5-diphenyltetrazolium bromide, a yellow tetrazole), is reduced to purple formazan in living cells. A solubilization solution (usually either dimethyl sulfoxide, an acidified ethanol solution, or a solution of the detergent sodium dodecyl sulphate in diluted hydrochloric acid) is added to dissolve the insoluble purple formazan product into a coloured solution. The absorbance of this coloured solution can be quantified by measuring at a certain wavelength (usually between 500 and 600 nm) by a spectrophotometer. The absorption maximum is dependent on the solvent employed.
(§4) WST-1 (Roche Applied Sciences, Montreal) is a ready-to-use substrate which measures the metabolic activity of viable cells. The WST-1 assay is nonradioactive and can be performed entirely in a microplate. It is suitable for measuring cell proliferation, cell viability or cytotoxicity. The assay is based on the reduction of WST-1 by viable cells. The reaction produces a soluble formazan salt. The procedure involves: Culturing the cells in a 96-well microplate, then incubating them with WST-1 for approx. 0.5-4 h. During this incubation period, viable cells convert WST-1 to a water-soluble formazan dye. Quantitating the formazan dye in the microplate is done with an ELISA plate reader. The absorbance directly correlates with the cell number.

A 2780cis cells = assay: Cell viability of A 2780cis ovarian cancer cells in culture (MTT or WST-1, 72 hrs); format: cell-based, human; conditions: oseltamivir phosphate alone; A 2780cis (chemo-resistant); MTT or WST-1, 72 hrs
Description: (§5) A-2780 cells are human ovarian cancer cell line which was established from tumor tissue from an untreated patient with adenocarcinoma. Cells grow as a monolayer and in suspension in spinner cultures.
as §2, §3, §4

A 2780 cells = assay: Cell viability of A 2780 ovarian cancer cells in culture (MTT or WST-1, 72 hrs); format: cell-based, human; conditions: oseltamivir phosphate alone; A 2780 (chemo-sensitive); MTT or WST-1, 72 hrs
Description: as §5, §2, §3, §4

MCF-7 cells = assay: Cell viability of MCF-7 breast cancer cells in culture (MTT or WST-1, 72 hrs); format: cell-based, human; conditions: oseltamivir phosphate alone; MCF-7 (chemo-sensitive); MTT or WST-1, 72 hrs
Description: as §1, §2, §3, §4

BxPC-3 cells = assay: Cell viability of BxPC-3 pancreatic cancer cells in culture (MTT or WST-1, 72 hrs); format: cell-based, human; conditions: oseltamivir phosphate alone; BxPC-3 (chemo-resistant); MTT or WST-1, 72 hrs
PANC-1 cells = assay: Cell viability of PANC-1 pancreatic cancer cells in culture (MTT or WST-1, 72 hrs); format: cell-based, human
[1] = system: PANC-1 human pancreatic cancer cells implanted in RAG1/Cγ double mutant NOD xenograft mice; assay: PANC-1 pancreatic cancer xenograft in RAG1/Cγ double mutant NOD mice; conditions: for Liver metastases % Inhibition: vs untreated day 79
Description: An immunodeficient mouse model with a double mutation in the combining recombinase activating gene-1 or -2 (RAG1 or RAG2) and common cytokine receptor γ chain (cγ) were used as xenograft mice. […] Mice deficient in both RAG2 and cγ (RAG2−/−/cγ−/−) were generated by inter-crossing and were maintained in SPF isolators in the Animal Care Facility, Queen's University, Kingston, Ontario K7L3N6, Canada. A colony was established in the animal facility. Mice deficient in both RAG1 and cγ (RAG1^−/−×cγ^−/−) on a non-obese diabetic (NOD) genetic background were obtained from the Jackson Laboratory (Bar Harbor, Me.) and a colony was established in the animal facility. All mice were kept under sterile conditions in micro-isolators or air-filtered cages, and were provided with autoclaved food and water. […] They were used between 6 and 8 weeks of age.
Puromycin-resistance eGFP transduced MiaPaCa-2 or PANC-1 cell clones were grown in 75 cm^2 cell culture flask at 80% confluence. The cells were resuspended into solution using TrypLE Express (Gibco) and washed with sterile saline. The cell suspension was centrifuged for 3 min at 900 rpm, and the cell pellet resuspended in sterile saline at a concentration of 5-10×10^6 cells/mL for 1-2×10^6 cells implantation into the right back flank of the mouse. Tumour measurements were taken twice a week. Tumour volumes were determined by (width square/2)×length.
The RAG1/Cγ double mutant xenograft mouse model was implanted with 2×10^6 PANC-1 cells in 0.2 mL in the right back flank.

[2] = system: MiaPaCa-2-eGFP pancreatic cancer cells implanted in RAG2/Cγ double mutant Balbc xenograft mice; assay: MiaPaCa-2-eGFP pancreatic cancer xenograft in RAG2/Cγ double mutant Balbc mice; format: in vivo, mouse
Description: Tumour measurements were taken twice a week.
MiaPaCa-2-eGFP pancreatic cancer cells at 1.5×10^6 in 0.2 mL were implanted subcutaneously in the right back flank of these mice. Each mouse in the study was identified by an ear punch number. Twice a week each mouse following implantation of the cancer cells was monitored for tumour volume growth (length and width) at the site of implantation, body weights, and body condition scoring. Scoring the body condition of rodents is a non-invasive method for assessing health and establishing endpoints for adults where body weight is not a viable monitoring tool, such as with tumour models. Body condition scores (BC) range from 1(emaciation) to 5 (obesity). An anticipated BCS of 2—under conditioned—or lower, requires justification in the protocol. Scores are determined by frequent visual and hands-on examination of each animal. The hands-on evaluation is done by gently holding the mouse by the base of the tail and passing a finger over the sacroiliac bones. The findings are matched to the descriptions and diagrams of BC ranges to determine a score. Scores are documented for each animal.

MiaPaCa-2 cells = assay: Cell viability of MiaPaCa-2 pancreatic cancer cells in culture (MTT or WST-1, 72 hrs); format: cell-based, human
Capan-1 cells = assay: Cell viability of Capan-1 pancreatic metastatic cancer cells in culture (MTT or WST-1, 72 hrs); format: cell-based, human; conditions: oseltamivir phosphate alone; Capan-1 (chemo-sensitive); MTT or WST-1, 72 hrs
Description: CAPAN-1 cells (ATCC® Number: HTB-79™) are human pancreatic cancer cell line with epithelial morphology expressing the 17 beta-estradiol (E2)-binding estrogen receptor and derived from metastatic liver with adenocarcinoma.
as §2, §3, §4

[3] = oseltamivir phosphate analogues (TD), WST-1, 72 hrs
[4] = day 84, oseltamivir phosphate 2 mg/kg daily, alone or with Abraxane 0.5 / Gemcitabine 30 mg/kg
[5] = day 84, oseltamivir phosphate 5 mg/kg daily, alone or with Abraxane 0.5 / Gemcitabine 30 mg/kg
[6] = day 93, oseltamivir phosphate 2 mg/kg daily, alone or with Gemcitabine 30 mg/kg
[7] = day 93, oseltamivir phosphate 5 mg/kg daily, alone or with Gemcitabine 30 mg/kg
[8] = oseltamivir phosphate 2 mg/kg, alone day 90, with abraxane 0.5 day 78, with gemcitabine 30 day 110

CCOC(=O)C1=C[C@@H](OC(CC)CC)[C@H](NC(C)=O)[C@@H](N)C1 [oseltamivir phosphate]
LD50 (MDA MB-231 cells): 0.6 µM | LD50 (A 2780cis cells): 1.0 µM | LD50 (A 2780 cells): 1.5 µM | LD50 (MCF-7 cells): >3 µM | LD50 (BxPC-3 cells): 975 µM | LD50 (PANC-1 cells; oseltamivir phosphate alone, PANC-1 (chemo-resistant), MTT or WST-1, 72 hrs): 1462 µM | LD50 PANC-1 (PANC-1 cells; [3]): 1462 µM | % Inhibition To untreated ([1]; day 79, oseltamivir phosphate 2 mg/kg daily, alone or with Abraxane 0.5 / Gemcitabine 30 mg/kg): 35% (n.s.) | Tumour volume ([1]; day 79, oseltamivir phosphate 2 mg/kg i.p. daily, alone or with Abraxane 0.5 / Gemcitabine 30 mg/kg): 901 ± 104 (5) mm^3 | % Inhibition To untreated ([1]; day 79, oseltamivir phosphate 5 mg/kg daily, alone or with Abraxane 0.5 / Gemcitabine 30 mg/kg): 31% (n.s.) | Tumour volume ([1]; day 79, oseltamivir phosphate 5 mg/kg i.p. daily, alone or with Abraxane 0.5 / Gemcitabine 30 mg/kg): 956 ± 345 (4) mm^3 | % Inhibition To untreated [1, 4]: 22% (n.s.) | Tumour volume [1, 4]: 1079 ± 91 (5) mm^3 | % Inhibition To untreated [1, 5]: 5% (n.s.) | Tumour volume [1, 5]: 1321 ± 503 (4) mm^3 | % Inhibition To untreated [1, 6]: 0% (n.s.) | Tumour volume [1, 6]: 1554 ± 469 (2) mm^3 | % Inhibition To untreated [1, 7]: 0% (n.s.) | Tumour volume [1, 7]: 1406 ± 471 (2) mm^3 | Liver metastases (ave number of nodules) ([1]; oseltamivir phosphate 2 mg/kg, alone day 90, with abraxane 0.5 mg/kg day 78, with gemcitabine 30 mg/kg day 110): 26 | Metastases (size, mm) [1, 8]: 0.2-1.3 mm | Liver metastases % Inhibition [1, 8]: 38% | Liver metastases (ave number of nodules) ([1]; oseltamivir phosphate 5 mg/kg, alone day 90, with abraxane 0.5 mg/kg day 90, with gemcitabine 30 mg/kg day 109): 21 | Liver metastases % Inhibition ([1]; oseltamivir phosphate 5 mg/kg, alone day 90, with abraxane 0.5 day 90, with gemcitabine 30 day 109): 50% | Survival of tumour bearing mice ([1]; oseltamivir phosphate 2 and 5 mg/kg, Abraxane 0.5 mg/kg, gemcitabine 30 mg/kg, alone or combined, untreated control day 80): 91 days and 94 days | % Inhibition (tumour volume) ([2]; Table 8 study, day 46, 50 mg/kg, vs untreated): 60.4% | % Inhibition (tumour volume) ([2]; Table 8 study, day 46, 100 mg/kg, vs untreated): 61.0% | % Inhibition (tumour volume) ([2]; Table 8 study, day 46, 200 mg/kg, vs untreated): 58.5% | Tumour volume ([2]; Table 8 study, day 46 post implantation, oseltamivir phosphate 50 mg/kg): 368 ± 38 (4) mm^3 | Tumour volume ([2]; Table 8 study, day 46 post implantation, oseltamivir phosphate 100 mg/kg): 362 ± 62 (4) mm^3 | Tumour volume ([2]; Table 8 study, day 46 post implantation, oseltamivir phosphate 200 mg/kg): 386 ± 88 (4) mm^3 | % Inhibition (tumour volume) ([2]; day 48, 2 mg/kg i.p., vs untreated): 61.7% | % Inhibition (tumour volume) ([2]; day 48, 10 mg/kg i.p., vs untreated): 71.5% | % Inhibition (tumour volume) ([2]; day 48, 50 mg/kg i.p., vs untreated): 60.3% | % Inhibition (tumour volume) ([2]; day 48, 100 mg/kg i.p., vs untreated): 58.9% | Tumour volume ([2]; day 48 post implantation, oseltamivir phosphate 2 mg/kg i.p.): 370 ± 88 (5) mm^3 | Tumour volume ([2]; day 48 post implantation, oseltamivir phosphate 10 mg/kg i.p.): 275 ± 71 (6) mm^3 | Tumour volume ([2]; day 48 post implantation, oseltamivir phosphate 50 mg/kg i.p.): 383 ± 71 (4) mm^3 | Tumour volume ([2]; day 48 post implantation, oseltamivir phosphate 100 mg/kg i.p.): 397 ± 57 (5) mm^3 | % Inhibition (tumour volume) ([2]; day 61, 2 mg/kg i.p.): 34.1% | % Inhibition (tumour volume) ([2]; day 61, 10 mg/kg i.p.): 26.3% | % Inhibition (tumour volume) ([2]; day 61, 50 mg/kg i.p.): 32.4% | % Inhibition (tumour volume) ([2]; day 61, 100 mg/kg i.p.): 27.4% | Tumour volume ([2]; day 61 post implantation, oseltamivir phosphate 2 mg/kg i.p.): 636 ± 35 (2) mm^3 | Tumour volume ([2]; day 61 post implantation, oseltamivir phosphate 10 mg/kg i.p.): 711 ± 159 (5) mm^3 | Tumour volume ([2]; day 61 post implantation, oseltamivir phosphate 50 mg/kg i.p.): 652 ± 173 (3) mm^3 | Tumour volume ([2]; day 61 post implantation, oseltamivir phosphate 100 mg/kg i.p.): 701 ± 201 (3) mm^3 | Reduction of tumour growth in time-to-progression ([2]; oseltamivir phosphate 2, 10, 50 and 100 mg/kg i.p. from day 40 post implantation, vs untreated): over 50% | LD50 (MiaPaCa-2 cells; oseltamivir phosphate alone, MiaPaCa (chemo-resistant), MTT or WST-1, 72 hrs): 850 µM | LD50 MiaPaCa-2 (MiaPaCa-2 cells; [3]): 850 µM | LD50 (Capan-1 cells): 2 µM

Reference: US10350188B2, “Use of Neu1 sialidase inhibitors in the treatment of cancer” (priority 2011, dated 2019)
